Experimental data reported in US5760241A, “Thiol derivatives with metallopeptidase inhibitory activity” (priority 1996, dated 1998).
Structures can show the parent of a compound that is named as a salt.

Tests used:
[1] = target: T1, ACE (purified by lung rabbit, EC 3.4.15.1) (Oryctolagus cuniculus, UniProt P12822); assay: In vitro ACE-inhibitory activity (FAPGG substrate, spectrophotometric); assay type: biochemical; details: 37° C.; FAPGG 0.8 mM
T1 construct: purchased SIGMA; host or cells: rabbit lung
T1 sequence (P12822 34-1310): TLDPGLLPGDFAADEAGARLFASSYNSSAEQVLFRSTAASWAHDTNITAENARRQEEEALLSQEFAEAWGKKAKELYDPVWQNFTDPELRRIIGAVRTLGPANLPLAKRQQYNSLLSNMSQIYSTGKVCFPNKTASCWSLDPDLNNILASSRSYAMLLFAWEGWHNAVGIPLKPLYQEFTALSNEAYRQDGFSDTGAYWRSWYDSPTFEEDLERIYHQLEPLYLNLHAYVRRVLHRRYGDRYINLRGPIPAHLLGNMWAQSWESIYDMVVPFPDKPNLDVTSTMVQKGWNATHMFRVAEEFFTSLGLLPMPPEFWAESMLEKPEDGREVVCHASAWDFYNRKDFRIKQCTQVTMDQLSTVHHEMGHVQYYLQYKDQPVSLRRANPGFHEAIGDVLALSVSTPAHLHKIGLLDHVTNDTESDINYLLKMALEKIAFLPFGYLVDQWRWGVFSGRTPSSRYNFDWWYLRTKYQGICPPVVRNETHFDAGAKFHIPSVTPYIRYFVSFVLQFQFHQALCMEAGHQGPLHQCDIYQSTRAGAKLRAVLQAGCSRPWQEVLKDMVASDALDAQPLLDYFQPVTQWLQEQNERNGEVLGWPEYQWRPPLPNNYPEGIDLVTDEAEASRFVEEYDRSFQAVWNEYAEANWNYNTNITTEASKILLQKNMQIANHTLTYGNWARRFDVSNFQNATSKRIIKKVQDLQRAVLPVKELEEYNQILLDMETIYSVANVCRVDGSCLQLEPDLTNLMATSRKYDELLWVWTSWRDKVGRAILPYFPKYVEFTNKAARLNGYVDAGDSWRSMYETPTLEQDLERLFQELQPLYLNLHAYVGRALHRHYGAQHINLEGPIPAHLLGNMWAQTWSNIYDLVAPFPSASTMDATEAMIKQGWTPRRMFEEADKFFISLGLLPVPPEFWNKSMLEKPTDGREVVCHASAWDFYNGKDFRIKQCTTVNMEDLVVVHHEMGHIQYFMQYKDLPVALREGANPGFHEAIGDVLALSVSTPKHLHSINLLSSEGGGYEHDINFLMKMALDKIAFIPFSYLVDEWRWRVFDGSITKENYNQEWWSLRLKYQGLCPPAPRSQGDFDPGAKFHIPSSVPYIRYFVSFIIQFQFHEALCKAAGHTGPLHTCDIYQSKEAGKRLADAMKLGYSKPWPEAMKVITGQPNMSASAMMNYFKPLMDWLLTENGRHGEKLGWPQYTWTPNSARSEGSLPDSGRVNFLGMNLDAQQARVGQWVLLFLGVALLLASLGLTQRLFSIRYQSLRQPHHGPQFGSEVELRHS
Description: b) ACE-inhibitory activity
The ACE-inhibitory activity was evaluated according to the method reported in the literature by B. Holmquist et al., in Analytical Biochemistry 95, 540-548 (1979).
[…] of ACE (250 mU/ml purified by lung rabbit, EC 3.4.15.1 SIGMA) were preincubated with 50 μl of the compound of formula I or of the comparison compound in thermostated cuvettes at 37° C.
The reaction was started by adding furylacryloylphenylalanylglycylglycine 0.8 mM (FAPGG-SIGMA).
Contemporaneously, by using a Beckman DU-50 spectrophotometer provided with a program for calculating delta A/minutes and regression coefficients of the enzyme kinetics curves, the absorbance at 340 nm was recorded in continuo for 5 minutes.
The percentage of the enzyme inhibition in the preparations treated with the compounds of formula I or with the comparative compounds with respect to the untreated preparations was expressed as IC50 (nM) value.

[2] = target: T2, NEP (membranes from rat kidney cortex) (Rattus norvegicus, UniProt P07861); assay: In vitro NEP-inhibitory activity in rat kidney cortex membranes ([3H][Leu5]-enkephaline substrate); assay type: biochemical, male Sprague-Dawley rats; details: for IC50: 20 minutes at 30° C., [3H][Leu5]-enkephaline 15 nM
T2 construct: from tissue; host or cells: kidney cortex membranes of male Sprague-Dawley rats
T2 sequence (P07861 1-750): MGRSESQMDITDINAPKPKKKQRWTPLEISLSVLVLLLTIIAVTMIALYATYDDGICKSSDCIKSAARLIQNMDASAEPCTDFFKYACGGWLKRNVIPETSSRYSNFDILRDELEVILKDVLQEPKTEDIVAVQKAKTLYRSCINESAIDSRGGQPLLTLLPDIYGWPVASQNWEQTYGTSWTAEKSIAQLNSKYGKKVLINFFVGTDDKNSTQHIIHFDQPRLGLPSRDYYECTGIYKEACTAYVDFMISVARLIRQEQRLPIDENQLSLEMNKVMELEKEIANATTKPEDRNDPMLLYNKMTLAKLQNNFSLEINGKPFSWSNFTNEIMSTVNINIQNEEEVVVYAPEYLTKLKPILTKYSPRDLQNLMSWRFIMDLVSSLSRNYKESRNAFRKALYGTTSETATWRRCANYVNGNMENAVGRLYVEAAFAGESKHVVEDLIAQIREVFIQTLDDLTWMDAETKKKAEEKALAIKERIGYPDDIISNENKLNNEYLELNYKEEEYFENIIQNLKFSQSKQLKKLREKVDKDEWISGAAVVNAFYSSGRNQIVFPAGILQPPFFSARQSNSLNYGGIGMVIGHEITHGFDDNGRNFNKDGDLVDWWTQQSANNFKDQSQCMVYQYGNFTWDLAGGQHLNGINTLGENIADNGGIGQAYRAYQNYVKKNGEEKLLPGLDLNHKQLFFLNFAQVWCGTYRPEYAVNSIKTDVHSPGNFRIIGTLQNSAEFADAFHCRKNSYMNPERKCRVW
Description: a) NEP-inhibitory activity
The NEP-inhibitory activity was evaluated in membranes from rat kidney cortex prepared according to the procedure described by T. Maeda et al. in Biochim. Biophys. Acta 1983, 731(1), 115-120.
By working at 0°-4° C., kidneys were removed from male Sprague-Dawley rats weighing approximately 300 g.
Cortex was carefully dissected, finely minced and suspended in a homogenization buffer (10 mM sodium phosphate pH 7.4 containing 1 mM MgCl2, 30 mM NaCl, 0.02% NaN3) 1:15 weight/volume.
The tissue was then homogenized for 30 seconds using an Ultra-Turrax homogenizer.
Approximately 10 ml of homogenate were layered over 10 ml of sucrose (41% weight/volume) and centrifuged at 31200 rpm for 30 minutes at 4° C. in a fixed angle rotor. The membranes were collected from the buffer/sucrose interface, washed twice with 50 mM TRIS/HCl buffer (pH 7.4) and resuspended into the same buffer for storage.
The membranes were stored in small aliquots at -80° C. until use.
The NEP-inhibitory activity was evaluated according to the method described by C. Llorens et al., in Eur. J. Pharmacol., 69, (1981), 113-116, as reported hereinafter.
Aliquots of the membrane suspension prepared as above described (concentration 5 μg/ml of proteins) were preincubated in the presence of an aminopeptidase inhibitory (Bestatin--1 mM) for 10 minutes at 30° C.
[^3 H][Leu^5 ]-enkephaline (15 nM) and buffer TRIS/HCl pH 7.4 (50 mM) were added in order to obtain a final volume of 100 μl.
Incubation (20 minutes at 30° C.) was stopped by adding HCl 0.1M (100 μl).
The formation of the metabolite [^3 H]Tyr-Gly-Gly was quantified by chromatography on polystyrene columns (Porapak Q).

[3] = system: ACE/NEP; assay: Ex vivo mixed/dual ACE/NEP-inhibitory activity (lung and kidney of SHR taken together); assay type: in vivo, spontaneously hypertensive rats (SHR); details: intravenous or oral
Description: The ex vivo ACE/NEP-inhibitory activity of the compounds of formula I, in particular, was evaluated by considering the enzymatic activity in tissue homogenates (lung and kidney for the ACE- and NEP-inhibitory activity, respectively) from spontaneously hypertensive rats (SHR), treated with the tested compounds by intravenous or oral route.
The inhibitory activity of the compounds of formula I was evaluated in kidneys of spontaneously hypertensive rats (SHR), 5 minutes after i.v. injection (0.6, 0.64 and 21 μmoles/kg) and 30 minutes, 60 minutes and 4 hours after oral administration (30 μmoles/kg) of the tested compounds.
The inhibitory activity of the compounds of formula I was evaluated in lungs of spontaneously hypertensive rats (SHR), 5 minutes after i.v. injection (0.6, 0.64 and 21 μmoles/kg) and 30 minutes, 60 minutes and 4 hours after oral administration (30 μmoles/kg) of the tested compounds.
As an example, the percentages of basal enzymatic activity obtained in the ex vivo tests after the administration of compounds 29 and 41, as representative compounds of formula I, and of the comparison compounds R-1, R-2, R-3 and R-4 are reported in the following table 2.

SMILES	IC50 [1]	NEP-inhibitory activity % inhibition (10^-7 M) ([2]; concentration 10^-7 M)	IC50 [2]	ex-vivo mixed/dual ACE/NEP-inhibitory activity, in words [3]	inhibition at 0.1 µM ([2]; read-out: NEP-inhibitory activity % inhibition (10^-7 M), concentration 10^-7 M)
Cc1cc(CC(CS)C(=O)N[C@@H](Cc2ccc(-c3ccccc3)cc2)C(=O)O)on1 (single isomer, unassigned) [compound 54, N-[2-mercaptomethyl-3-(3-methyl-5-isoxazolyl)propionyl]-(1,1'-biphenyl-4-yl)-L-alanine]	11 nM	76%	–	–	–
O=C(N[C@@H](Cc1ccc(-c2ccccc2)cc1)C(=O)O)C(CS)Cc1ccco1 (stereo partly drawn) [compound 52, N-[3-(2-furyl)-2-(mercaptomethyl)propionyl]-(1,1'-biphenyl-4-yl)-L-alanine]	6 nM	–	3.7 nM	–	–
O=C(N[C@@H](Cc1ccc(-c2ccccc2)cc1)C(=O)O)[C@H](CS)Cc1ccccc1 [compound 47, N-[(2R)-2-mercaptomethyl-3-phenylpropionyl]-(1,1'-biphenyl-4-yl)-L-alanine]	25.3 nM	–	6.1 nM	–	–
O=C(N[C@@H](Cc1ccc(-c2ccccc2)cc1)C(=O)O)C(CS)Cc1cccnc1 (single isomer, unassigned) [compound 51, N-[2-mercaptomethyl-3-(3-pyridyl)propionyl]-(1,1'-biphenyl-4-yl)-L-alanine hydrochloride]	2 nM	–	13 nM	–	–
CC(c1ccccc1)C(CS)C(=O)N[C@@H](C)C(=O)O (stereo partly drawn) [RB 105, N-[2-(mercaptomethyl)-3-phenylbutanoyl]-L-alanine, reference compound]	5 nM	–	24 nM	not confirmed by ex-vivo tests	–
O=C(N[C@@H](Cc1ccc(-c2ccccc2)cc1)C(=O)O)[C@@H](CS)Cc1ccccc1 [compound 46, N-[(2S)-2-mercaptomethyl-3-phenylpropionyl]-(1,1'-biphenyl-4-yl)-L-alanine]	2.6 nM	–	1.8 nM	–	–
Cc1cc(CC(CS)C(=O)N[C@@H](Cc2ccc(-c3ccccc3)cc2)C(=O)O)on1 (single isomer, unassigned) [compound 53, N-[2-mercaptomethyl-3-(3-methyl-5-isoxazolyl)propionyl]-(1,1'-biphenyl-4-yl)-L-alanine]	13 nM	–	–	–	94%
